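All cell lines were grown in 96-well plates and treated with compound for 48 hours. GI50 = concentration required for 50% inhibition of growth. TGI marks complete inhibition of growth.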
System: MOLT-4 leukemia
Assay: growth of human tumour cells (NCI), 48 h

| Compound | TGI |
| --- | --- |
| O=[N+]([O-])c1ccc(CSCc2ccc(Cl)cc2)cc1 | > 100 µM |

System: NCI-H23 lung
Assay: growth of human tumour cells (NCI), 48 h

| Compound | GI50 | TGI |
| --- | --- | --- |
| C[C@H]1CCC/C=C/[C@@H]2C[C@H](O)C[C@H]2[C@H](O)[C@@H](SCC(O)CO)CC(=O)O1 (stereo not given in full) | 17.8 µM | 60.5 µM |
| N#Cc1ccc(OC(=O)Nc2ccc(Cl)c(Cl)c2)cc1 | 2.79 µM | 13.7 µM |
| CC[C@@]1(O)C(=O)OCc2c1cc1n(c2=O)Cc2c-1nc1cc(F)c(C)c3c1c2[C@@H](N)CC3 | < 0.01 µM | 0.0638 µM |
| CC/C=C/C/C=C/C/C=C/C/C=C/C/C=C/C/C=C/CCC(=O)Nc1ccn([C@@H]2O[C@H](CO)[C@@H](O)C2(F)F)c(=O)n1 | 0.019 µM | 9.3 µM |
| C/C(=N\NC(=S)N1CC2CCC(CC2)C1)c1ccccn1 | 0.0179 µM | 3.34 µM |
| O=C(NCc1ccc(S(=O)(=O)c2cc(F)cc(F)c2)cc1)c1ccc2nccn2c1 | > 48.7 µM | > 100 µM |
| NC(=S)N/N=C/c1cc(-c2cccc(N)c2)ccn1 | 1.91 µM | > 100 µM |
| CO/N=C(/C)c1cccc(Nc2cc(-c3ccccc3)nc3ccc(OC)cc23)c1 | 6.08 µM | 27.4 µM |
| Cc1nn(C(=O)c2ccc(Cl)cc2)c2c1C(c1ccc(O)cc1)SC(N)=N2 (stereo not given) |  | > 10 µM |
| O=[N+]([O-])c1ccc(CSCc2ccc(Cl)cc2)cc1 |  | > 100 µM |

System: SF-539 CNS
Assay: growth of human tumour cells (NCI), 48 h

| Compound | GI50 | TGI |
| --- | --- | --- |
| C[C@H]1CCC/C=C/[C@@H]2C[C@H](O)C[C@H]2[C@H](O)[C@@H](SCC(O)CO)CC(=O)O1 (stereo not given in full) | 31.8 µM | > 100 µM |
| N#Cc1ccc(OC(=O)Nc2ccc(Cl)c(Cl)c2)cc1 | 4.43 µM | 33 µM |
| CC[C@@]1(O)C(=O)OCc2c1cc1n(c2=O)Cc2c-1nc1cc(F)c(C)c3c1c2[C@@H](N)CC3 | < 0.01 µM | 0.0187 µM |
| CC/C=C/C/C=C/C/C=C/C/C=C/C/C=C/C/C=C/CCC(=O)Nc1ccn([C@@H]2O[C@H](CO)[C@@H](O)C2(F)F)c(=O)n1 | 0.0425 µM | 5.71 µM |
| C/C(=N\NC(=S)N1CC2CCC(CC2)C1)c1ccccn1 | 0.257 µM | 2.34 µM |
| O=C(NCc1ccc(S(=O)(=O)c2cc(F)cc(F)c2)cc1)c1ccc2nccn2c1 | < 0.01 µM | > 42.9 µM |
| NC(=S)N/N=C/c1cc(-c2cccc(N)c2)ccn1 | 0.675 µM | 6.17 µM |
| CO/N=C(/C)c1cccc(Nc2cc(-c3ccccc3)nc3ccc(OC)cc23)c1 | 2.45 µM | 4.89 µM |
| Cc1nn(C(=O)c2ccc(Cl)cc2)c2c1C(c1ccc(O)cc1)SC(N)=N2 (stereo not given) |  | > 10 µM |
| O=[N+]([O-])c1ccc(CSCc2ccc(Cl)cc2)cc1 |  | > 100 µM |

System: SK-MEL-5 melanoma
Assay: growth of human tumour cells (NCI), 48 h

| Compound | GI50 | TGI |
| --- | --- | --- |
| C[C@H]1CCC/C=C/[C@@H]2C[C@H](O)C[C@H]2[C@H](O)[C@@H](SCC(O)CO)CC(=O)O1 (stereo not given in full) | 6.3 µM | 19.5 µM |
| N#Cc1ccc(OC(=O)Nc2ccc(Cl)c(Cl)c2)cc1 | 6.03 µM | 19.4 µM |
| CC[C@@]1(O)C(=O)OCc2c1cc1n(c2=O)Cc2c-1nc1cc(F)c(C)c3c1c2[C@@H](N)CC3 | < 0.01 µM | 0.0203 µM |
| CC/C=C/C/C=C/C/C=C/C/C=C/C/C=C/C/C=C/CCC(=O)Nc1ccn([C@@H]2O[C@H](CO)[C@@H](O)C2(F)F)c(=O)n1 | 0.348 µM | 17.8 µM |
| C/C(=N\NC(=S)N1CC2CCC(CC2)C1)c1ccccn1 | 0.133 µM | 0.852 µM |
| O=C(NCc1ccc(S(=O)(=O)c2cc(F)cc(F)c2)cc1)c1ccc2nccn2c1 | 2.22 µM | > 100 µM |
| NC(=S)N/N=C/c1cc(-c2cccc(N)c2)ccn1 | 1.69 µM | 7.26 µM |
| CO/N=C(/C)c1cccc(Nc2cc(-c3ccccc3)nc3ccc(OC)cc23)c1 | 2.63 µM | 8.13 µM |
| Cc1nn(C(=O)c2ccc(Cl)cc2)c2c1C(c1ccc(O)cc1)SC(N)=N2 (stereo not given) |  | > 10 µM |
| O=[N+]([O-])c1ccc(CSCc2ccc(Cl)cc2)cc1 |  | > 100 µM |

System: T-47D breast
Assay: growth of human tumour cells (NCI), 48 h

| Compound | GI50 | TGI |
| --- | --- | --- |
| C[C@H]1CCC/C=C/[C@@H]2C[C@H](O)C[C@H]2[C@H](O)[C@@H](SCC(O)CO)CC(=O)O1 (stereo not given in full) | 45.2 µM | > 100 µM |
| N#Cc1ccc(OC(=O)Nc2ccc(Cl)c(Cl)c2)cc1 | 3.15 µM | 12.8 µM |
| CC[C@@]1(O)C(=O)OCc2c1cc1n(c2=O)Cc2c-1nc1cc(F)c(C)c3c1c2[C@@H](N)CC3 | < 0.01 µM | > 100 µM |
| CC/C=C/C/C=C/C/C=C/C/C=C/C/C=C/C/C=C/CCC(=O)Nc1ccn([C@@H]2O[C@H](CO)[C@@H](O)C2(F)F)c(=O)n1 | 0.174 µM | 54.4 µM |
| C/C(=N\NC(=S)N1CC2CCC(CC2)C1)c1ccccn1 | 0.0113 µM | 1.39 µM |
| O=C(NCc1ccc(S(=O)(=O)c2cc(F)cc(F)c2)cc1)c1ccc2nccn2c1 | 11.7 µM | > 100 µM |
| NC(=S)N/N=C/c1cc(-c2cccc(N)c2)ccn1 | 1.34 µM | > 100 µM |
| CO/N=C(/C)c1cccc(Nc2cc(-c3ccccc3)nc3ccc(OC)cc23)c1 | 71 µM | > 100 µM |
| Cc1nn(C(=O)c2ccc(Cl)cc2)c2c1C(c1ccc(O)cc1)SC(N)=N2 (stereo not given) |  | > 10 µM |
| O=[N+]([O-])c1ccc(CSCc2ccc(Cl)cc2)cc1 |  | > 100 µM |

System: TK-10 renal
Assay: growth of human tumour cells (NCI), 48 h

| Compound | GI50 | TGI |
| --- | --- | --- |
| C[C@H]1CCC/C=C/[C@@H]2C[C@H](O)C[C@H]2[C@H](O)[C@@H](SCC(O)CO)CC(=O)O1 (stereo not given in full) | 48 µM | > 100 µM |
| N#Cc1ccc(OC(=O)Nc2ccc(Cl)c(Cl)c2)cc1 | 3.85 µM | 33.9 µM |
| CC[C@@]1(O)C(=O)OCc2c1cc1n(c2=O)Cc2c-1nc1cc(F)c(C)c3c1c2[C@@H](N)CC3 | 0.0725 µM |  |
| CC/C=C/C/C=C/C/C=C/C/C=C/C/C=C/C/C=C/CCC(=O)Nc1ccn([C@@H]2O[C@H](CO)[C@@H](O)C2(F)F)c(=O)n1 | 39.1 µM | > 66.5 µM |
| C/C(=N\NC(=S)N1CC2CCC(CC2)C1)c1ccccn1 | 0.405 µM | 1.78 µM |
| O=C(NCc1ccc(S(=O)(=O)c2cc(F)cc(F)c2)cc1)c1ccc2nccn2c1 | 36.3 µM | > 62.9 µM |
| NC(=S)N/N=C/c1cc(-c2cccc(N)c2)ccn1 | 1.2 µM | 44 µM |
| CO/N=C(/C)c1cccc(Nc2cc(-c3ccccc3)nc3ccc(OC)cc23)c1 | 3.32 µM | 12.8 µM |
| Cc1nn(C(=O)c2ccc(Cl)cc2)c2c1C(c1ccc(O)cc1)SC(N)=N2 (stereo not given) |  | > 10 µM |
| O=[N+]([O-])c1ccc(CSCc2ccc(Cl)cc2)cc1 |  | > 100 µM |

— PubChem BioAssay (NCI)
